Laboratory results as given in ChEMBL document CHEMBL1641476, “Tetrahydroquinoline derivatives as opioid receptor antagonists” (Bioorg Med Chem Lett, 2011).

Legend:
Mu-type opioid receptor = Mu-type opioid receptor (Homo sapiens, UniProt P35372); test: Antagonist activity at human mu opioid receptor expressed in CHO cells assessed as [35S]GTPgammaS binding by SPA; format: functional, cell-based
[1] = target: Delta-type opioid receptor (Homo sapiens, UniProt P41143); test: Antagonist activity at human delta opioid receptor expressed in CHO cells assessed as [35S]GTPgammaS binding by SPA; format: functional, cell-based
Sequence of Delta-type opioid receptor (P41143 whole entry): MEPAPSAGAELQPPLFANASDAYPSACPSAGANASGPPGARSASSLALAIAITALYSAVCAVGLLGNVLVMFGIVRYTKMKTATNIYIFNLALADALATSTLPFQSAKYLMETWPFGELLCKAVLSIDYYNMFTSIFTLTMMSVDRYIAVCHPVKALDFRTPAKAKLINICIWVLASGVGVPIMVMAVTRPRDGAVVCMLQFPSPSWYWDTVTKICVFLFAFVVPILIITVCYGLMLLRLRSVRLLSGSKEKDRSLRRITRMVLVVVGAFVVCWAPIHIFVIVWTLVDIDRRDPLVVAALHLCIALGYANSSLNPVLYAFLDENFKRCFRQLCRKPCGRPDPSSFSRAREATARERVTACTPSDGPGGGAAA

[2] = target: Kappa-type opioid receptor (Homo sapiens, UniProt P41145); test: Antagonist activity at human kappa opioid receptor expressed in CHO cells assessed as [35S]GTPgammaS binding by SPA; format: functional, cell-based
Sequence of Kappa-type opioid receptor (P41145 whole entry): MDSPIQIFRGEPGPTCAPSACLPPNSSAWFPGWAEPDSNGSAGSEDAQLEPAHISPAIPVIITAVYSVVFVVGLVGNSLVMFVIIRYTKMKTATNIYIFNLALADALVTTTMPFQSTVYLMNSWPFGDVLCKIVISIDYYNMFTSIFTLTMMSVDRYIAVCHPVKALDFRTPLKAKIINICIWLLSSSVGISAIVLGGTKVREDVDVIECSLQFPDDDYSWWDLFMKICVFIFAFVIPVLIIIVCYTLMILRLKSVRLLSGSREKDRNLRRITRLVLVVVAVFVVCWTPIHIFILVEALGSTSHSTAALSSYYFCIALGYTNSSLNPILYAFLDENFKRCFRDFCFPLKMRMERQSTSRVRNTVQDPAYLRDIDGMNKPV

[3] = Half life in iv dosed Long-Evans rat; format: ADME, organism-based; details: in vivo
[4] = Volume of distribution at steady state in iv dosed Long-Evans rat; format: ADME, organism-based; details: in vivo, read-out: Vdss
[5] = Clearance in iv dosed Long-Evans rat; format: ADME, organism-based; details: in vivo
[6] = Oral bioavailability in Long-Evans rat; format: ADME, organism-based; details: in vivo
Rattus norvegicus = test: Ratio of drug level in po dosed Long-Evans rat; format: ADME, organism-based; details: in vivo

Sequence of Mu-type opioid receptor (P35372 whole entry): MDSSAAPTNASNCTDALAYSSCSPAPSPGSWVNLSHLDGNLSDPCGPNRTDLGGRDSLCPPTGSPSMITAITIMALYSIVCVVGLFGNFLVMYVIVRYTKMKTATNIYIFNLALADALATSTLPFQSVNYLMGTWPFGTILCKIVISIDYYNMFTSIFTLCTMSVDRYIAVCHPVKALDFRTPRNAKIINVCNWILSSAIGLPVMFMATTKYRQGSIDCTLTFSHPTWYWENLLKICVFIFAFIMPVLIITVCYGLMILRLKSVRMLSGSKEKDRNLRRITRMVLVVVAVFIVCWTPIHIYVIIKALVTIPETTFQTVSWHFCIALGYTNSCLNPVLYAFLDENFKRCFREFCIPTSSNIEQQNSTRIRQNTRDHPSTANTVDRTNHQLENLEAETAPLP

Structure (SMILES) | Ki (Mu-type opioid receptor) [nM] | Ki [1] [nM] | Ki [2] [nM] | half-life [3] [h] | Vd [4] [L/kg] | clearance [5] [mL/min/kg] | bioavailability [6] [%] | Ratio (Rattus norvegicus)
Cc1cc(N2CCCc3cc(C(N)=O)ccc32)ccc1CNCCC1=CCCCC1 | 100 | 501 | 631 |  |  |  |  | 
NC(=O)c1ccc2c(c1)CCCN2c1ccc(CNC2Cc3ccc(F)cc3C2)cc1 (stereo not drawn) | 12.6 | 79.4 | 126 |  |  |  |  | 
CC(C)(C)CCNCc1ccc(N2CCCc3cc(C(N)=O)ccc32)cc1 | 50.1 | 316 | 251 |  |  |  |  | 
NC(=O)c1ccc2c(c1)CCCN2c1ccc(CNC2Cc3ccccc3C2)c(Cl)c1 | 15.8 | 100 | 200 |  |  |  |  | 
C1=C(CCNCc2ccc(N3CCCc4ccccc43)cc2)CCCC1 | 398 | > 3980 | > 3980 |  |  |  |  | 
NC(=O)c1ccc2c(c1)CCCN2c1ccc(CNC2Cc3ccccc3C2)c(F)c1 | 7.94 | 100 | 200 |  |  |  |  | 
NC(=O)c1ccc2c(c1)CCCN2c1ccc(CNCC2CCCCC2)cc1 | 39.8 | 398 | 316 |  |  |  |  | 
NC(=O)c1ccc2c(c1)CCCN2c1ccc(CNC2Cc3ccccc3C2)c(C(F)(F)F)c1 | 50.1 | 63.1 | 631 |  |  |  |  | 
NC(=O)c1ccc2c(c1)CCCN2c1ccc(CNCCc2cccc(F)c2)cc1 | 31.6 | 251 | 794 |  |  |  |  | 
NC(=O)c1ccc2c(c1)CCCN2c1cc(F)c(CNC2Cc3ccccc3C2)c(F)c1 | 25.1 | 316 | 631 |  |  |  |  | 
NC(=O)c1ccc2c(c1)CCCN2c1cccc(C(=O)NCCC2=CCCCC2)c1 | 2000 | 1580 | > 3980 |  |  |  |  | 
Cc1cc(CNC2Cc3ccccc3C2)ccc1N1CCCc2cc(C(N)=O)ccc21 | 1.58 | 12.6 | 20 |  |  |  |  | 
NC(=O)c1ccc2c(c1)CCCN2c1ccc(CNCCc2cccs2)cc1 | 25.1 | 316 | 631 |  |  |  |  | 
NC(=O)c1ccc2c(c1)CCCN2c1cccc(CNCCC2=CCCCC2)c1 | 50.1 | 200 | 1260 |  |  |  |  | 
Cc1cc(CNCCC2=CCCCC2)ccc1N1CCCc2cc(C(N)=O)ccc21 | 12.6 | 100 | 200 |  |  |  |  | 
CCCCCNCc1ccc(N2CCCc3cc(C(N)=O)ccc32)cc1 | 50.1 | 251 | 1000 |  |  |  |  | 
NC(=O)c1ccc2c(c1)CCCN2c1ccc(CNCCC2=CCCCC2)cc1 | 25.1 | 158 | 316 | 5.34 | 1.5 | 26.5 | 33 | 0.1
NC(=O)c1ccc2c(c1)CCCN2c1ccc(CNC2CCN(C3CCOCC3)CC2)cc1 | > 3980 | > 3980 | > 3980 |  |  |  |  | 
NC(=O)c1ccc2c(c1)CCCN2c1ccc(CNCc2cccc(F)c2)cc1 | 100 | 398 | 631 |  |  |  |  | 
O=C(O)c1ccc2c(c1)CCCN2c1ccc(CNCCC2=CCCCC2)cc1 | > 3160 | > 3980 | > 3980 |  |  |  |  | 
CC1(C)CCC(NCc2ccc(N3CCCc4cc(C(N)=O)ccc43)cc2)CC1 | 10 | 50.1 | 63.1 |  |  |  |  | 
NC(=O)c1ccc2c(c1)CCCN2c1ccc(CNCCC2CCOCC2)cc1 | 126 | 316 | 251 |  |  |  |  | 
CC(C)CNCc1ccc(N2CCCc3cc(C(N)=O)ccc32)cc1 | 631 | > 3980 | 1260 |  |  |  |  | 
Cc1cc(N2CCCc3cc(C(N)=O)ccc32)ccc1CNC1Cc2ccccc2C1 | 7.94 | 158 | 158 |  |  |  |  | 
NC(=O)c1ccc2c(c1)CCCN2c1ccc(CNC2Cc3ccccc3C2)cc1 | 5.01 | 39.8 | 25.1 |  |  |  |  | 
CC(C)CCNCc1ccc(N2CCCc3cc(C(N)=O)ccc32)cc1 | 79.4 | 316 | 501 |  |  |  |  | 
